From PubChem BioAssay (NCI)
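Five concentrations, 48 hours, 96-well plates. GI50 marks 50% less growth. TGI denotes the concentration required for complete inhibition of growth.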

Columns and labels:
Assay in all cases: NCI tumour cell line growth inhibition, 48 h
DU-145 prostate = tested on: DU-145 prostate
HL-60(TB) leukemia = tested on: HL-60(TB) leukemia
HT29 colon = tested on: HT29 colon
OVCAR-3 ovarian = tested on: OVCAR-3 ovarian
RXF 393 renal = tested on: RXF 393 renal
SK-MEL-2 melanoma = tested on: SK-MEL-2 melanoma
SK-MEL-28 melanoma = tested on: SK-MEL-28 melanoma
SW-620 colon = tested on: SW-620 colon
UACC-257 melanoma = tested on: UACC-257 melanoma
COLO 205 colon = tested on: COLO 205 colon

Row | Compound | GI50 (DU-145 prostate) | TGI (DU-145 prostate) | GI50 (HL-60(TB) leukemia) | TGI (HL-60(TB) leukemia) | GI50 (HT29 colon) | TGI (HT29 colon) | GI50 (OVCAR-3 ovarian) | TGI (OVCAR-3 ovarian) | GI50 (RXF 393 renal) | TGI (RXF 393 renal) | GI50 (SK-MEL-2 melanoma) | TGI (SK-MEL-2 melanoma) | GI50 (SK-MEL-28 melanoma) | TGI (SK-MEL-28 melanoma) | GI50 (SW-620 colon) | TGI (SW-620 colon) | GI50 (UACC-257 melanoma) | TGI (UACC-257 melanoma) | GI50 (COLO 205 colon) | TGI (COLO 205 colon)
1 | O=[N+]([O-])c1ccc2ncccc2c1Cl | 3.4 µM | 10.2 µM | 1920 nM | 7.78 µM | 3.45 µM | 9.29 µM | 2770 nM | 6.99 µM | 2740 nM | 8.81 µM | 9210 nM | 30.5 µM | 6.29 µM | 20.8 µM | 627 nM | 16 µM | 7620 nM | 29.3 µM |  | 
2 | C=C1C(=O)O[C@H]2[C@H]1CC/C(COC(=O)c1ccc(C#N)cc1)=C\CC[C@@]1(C)O[C@@H]21 | 1.5 µM | 2.83 µM | 1670 nM | 7.47 µM | 1.62 µM | 4.02 µM | 1360 nM | 2.75 µM | 1030 nM | 2.32 µM | 1980 nM | 4.54 µM | 2.2 µM | 4.82 µM | 1270 nM | 2.88 µM | 1690 nM | 4.1 µM | 1630 nM | 3.81 µM
3 | COc1ccc(-c2csc(-c3cc(Cl)cc(Cl)c3Cl)n2)cc1 | 63.9 µM | > 100 µM | 78300 nM | > 100 µM | 47.5 µM | > 100 µM | 86800 nM | > 100 µM | 46400 nM | > 100 µM | > 100000 nM | > 100 µM | > 100 µM | > 100 µM | 42400 nM | > 100 µM | 62700 nM | > 100 µM | > 100000 nM | > 100 µM
4 | CC(=O)OC1CC2C(C)(C)C(=O)C=CC2(C)C2CCC3(C)C(c4ccoc4)OC(=O)C4OC43C12C (stereo unspecified) |  | 11 µM |  | > 100 µM |  | 39 µM |  | > 100 µM |  | 27.2 µM |  | 39.2 µM |  | > 100 µM |  | > 100 µM |  | > 100 µM |  | 21.7 µM
5 | C=C(C)[C@@H]1CC[C@]2(COC3CCCCO3)CC[C@]3(C)[C@H](CC[C@@H]4[C@@]5(C)C=C(C=O)C(=O)C(C)(C)[C@@H]5CC[C@]43C)[C@@H]12 (stereo partly specified) | 1.57 µM | 2.92 µM | 1560 nM | 5.37 µM | 1.7 µM | 3.49 µM | 1140 nM | 2.49 µM | 1240 nM | 2.73 µM | 1560 nM | 3.26 µM | 0.734 µM | 2.2 µM | 1130 nM | 2.87 µM | 2060 nM | 4.22 µM | 1620 nM | 3.48 µM
6 | CCc1nc(Cl)nc(Cl)c1Cl |  | 23.1 µM |  | 3.59 µM |  | 5.04 µM |  | 2.08 µM |  | 4.37 µM |  |  |  | 17.7 µM |  | 5.17 µM |  | 1.87 µM |  | 14.6 µM
7 | O=C(O)C1(Cc2cccc(Nc3nccs3)n2)CCC(Oc2cccc(Cl)c2F)CC1 (stereo unspecified) | 14.4 µM | 32.3 µM | 3430 nM | > 67.3 µM | 7.56 µM | 24.2 µM | 13300 nM | 36.4 µM | 48.8 nM | 12.8 µM | 17600 nM | 36.4 µM | 21.2 µM | > 65.2 µM | 4310 nM | > 58.9 µM | 31600 nM | > 81.1 µM | 876 nM | 19.3 µM
8 | CC1=C[S+](c2ccccc2)c2cccc3cc4ccccc4c1c23 (stereo unspecified) | 0.515 µM | 2.13 µM | 173 nM | 1.03 µM | 0.348 µM | 2.12 µM | 323 nM | 1.44 µM | 618 nM | 2.05 µM | 1520 nM | 8.55 µM | 0.511 µM | 1.89 µM | 321 nM | 1.65 µM | 315 nM | 1.68 µM | 147 nM | 0.314 µM
9 | O=C1CCc2c(sc3[nH]c(=S)n(Cc4ccccc4)c(=O)c23)C1 | 5.06 µM | > 100 µM | 1950 nM | 20.2 µM | 3.84 µM | 27 µM | 3720 nM | > 100 µM | 5810 nM | > 100 µM | 2490 nM | 5.81 µM | 4.4 µM | > 100 µM | 4200 nM | > 100 µM | 2360 nM | 7.06 µM | 2360 nM | 4.99 µM
10 | CC(=O)OCC1O[C@@H]([S-])C(OC(C)=O)[C@H](OC(C)=O)[C@@H]1OC(C)=O.[Au+].c1ccc(CN2[CH-]N(Cc3ccccc3)C(c3ccccc3)=C2c2ccccc2)cc1 | 1.89 µM | 3.54 µM | 2240 nM | 6.12 µM |  |  | 1610 nM | 2.99 µM | 1630 nM | 3.51 µM | 1740 nM | 3.43 µM | 1.64 µM | 3.21 µM |  |  | 1840 nM | 4.05 µM | 1990 nM | 3.75 µM
11 | Cc1cc(C)nc(SC2=C(Nc3cccc(Cl)c3C)C(=O)N(Cc3ccccc3)C2=O)n1 | > 160 µM | > 160 µM | > 160000 nM | > 160 µM | > 160 µM | > 160 µM | > 160000 nM | > 160 µM |  |  | > 160000 nM | > 160 µM | > 160 µM | > 160 µM | > 160000 nM | > 160 µM | > 160000 nM | > 160 µM | > 160000 nM | > 160 µM
12 | COc1ccc(-c2cc(=O)c3c(O)cc(C)cc3o2)cc1OC |  | > 100 µM |  | > 100 µM |  | > 100 µM |  | > 100 µM |  | > 100 µM |  | > 100 µM |  | > 100 µM |  | > 100 µM |  | > 100 µM |  | > 100 µM
13 | C/C(Cc1ccc(Cl)cc1)=C(/c1ccc(Cl)cc1)c1ccc(OCCN(C)C)cc1 | 4.74 µM | 9.44 µM | 3890 nM | 10 µM | 1.36 µM | 5.85 µM | 4530 nM | 9.2 µM | 3450 nM | 7.54 µM | 5690 nM | 11.4 µM | 4.85 µM | 9.29 µM | 1670 nM | 6.1 µM | 4240 nM | 9.38 µM | 1000 nM | 4.53 µM
